{
  "source": "patent US10989721B2",
  "about": "“Additive channels” (Emulate Inc., priority 2016, dated 2021)",
  "molecules": {"B1": {"name": "hu5C8 (IgG2σ): IgG2σ variant of hu5C8 with engineered Fc region that eliminates affinity for FcγRIIa (antibody, chains of the INN, looked up, V domains shown)", "VH": "QVQLVQSGAEVVKPGASVKLSCKASGYIFTSYYMYWVKQAPGQGLEWIGEINPSNGDTNFNEKFKSKATLTVDKSASTAYMELSSLRSEDTAVYYCTRSDGRNDMDSWGQGTLVTVSS", "VL": "DIVLTQSPATLSVSPGERATISCRASQRVSSSTYSYMHWYQQKPGQPPKLLIKYASNLESGVPARFSGSGSGTDFTLTISSVEPEDFATYYCQHSWEIPPTFGGGTKLEIK", "modifications": "IgG2σ engineered Fc lacking FcγRIIa binding"}},
  "assay_type_in_all_cases": "cell-based, human",
  "key": {"[1]": {"test_system": "platelets", "assay": "Vessel-On-Chip blood perfusion: platelet coverage/aggregation by fluorescence imaging (CD41 label)", "conditions": "for platelet aggregate formation compared to untreated blood: hu5C8 240 μg/mL, sCD40L 10 ng/ml, alone or combined, 4 donors, 60 μl/minute", "protocol": "(§1) Briefly, human blood was drawn in citrate buffer and used within 4 hours. Platelets were stained using fluorescently labeled non-blocking antibodies for the platelet surface marker CD41 and low dosages of fluorescent fibrinogen were added in order to visualize fibrin deposition. Blood was re-calcified in order to re-establish the full coagulation potential, then introduced in the biomimetic vessel-on-chip from the main inlet (embodiments of inlets shown in FIG. 18A-1, FIG. 18A-2 and FIG. 19C). The outlet of the chip was connected to a pulling syringe pump with a system of tubing and connectors made of medical grade silicon that excludes any metal components or potential causes of platelet activation (FIG. 5A).\n(§2) After 14 minutes of perfusion, the flow was interrupted and the chips were immediately imaged via fluorescence microscopy (FIG. 18C and FIG. 19D). In healthy conditions, endothelial cells will provide an antithrombotic surface where blood can flow smoothly, and indeed we detected minimal platelet adhesion or fibrin deposition in our vessel-on-chip after blood perfusion in control conditions, FIG. 18C, Blood.\nCell-monolayer integrity: Transmission light microscopy was routinely used to assess cell-monolayer integrity prior to each experiment. Before every experiment, each one of the endothelialized channels was inspected via light microscopy. Samples showing any sign of discontinuity in the endothelium were discarded. Vascular leakage assay as test for tissue integrity: The ability of cells to form a confluent monolayer was monitored for one week measuring vascular leakage of dextran (ThermoFisher). In order to measure vascular leakage the vascular channel was perfused with cell culture medium containing fluorescent dextran-cascade blue (3 kDa, ThermoFisher). The apical compartment was perfused with plain medium (without FBS). At various time points, the effluent from the chip was collected, and the relative fluorescence of the top and bottom compartments were measured using a standard plate reader. […] TNF-alpha Stimulation: In some experiment endothelial cells were stimulate with 50 ng/ml of TNF (Sigma) for 6 hours in order to induce vascular inflammation before blood perfusion. Experiments with Blood: Blood Samples And Endothelium: Citrated human blood (Research Blood Components, Cambridge, Mass.) was used within 4 hours of a blood draw in order to minimize pre-analytical effects on platelet function. Before every experiment, each one of the endothelialized channels (i.e. microchannels having an endothelial cell layer) was inspected via light microscopy. Samples showing any sign of discontinuity in the endothelium were discarded. […] USA) was at room temperature for 20 minutes. Cloning, Expression and Purification: Generation of IgG2σ was previously described (Vafa, O. et al. An engineered Fc variant of an IgG eliminates all immune effector functions via structural perturbations. Methods 65:114-126 (2014)). 5c8 human IgG1 and human IgG2-Sigma Fc variants were produced in Sino Biological Inc. Gene fragments encoding the 5c8 heavy and light chains were synthesized and cloned into mammalian expression vectors. DNA was produced and used in transient transfections with HEK293. Antibodies were purified using Protein A affinity chromatography and formulated in phosphate-buffered saline (DPBS), pH 7.4. Blood Pre-treatment and Perfusion: Formation of IC (preformed IC): Hu5C8, IgG2σ (control) (both provided by Janssen or provided as described herein) For studies with preformed IC, Hu5C8 or IgG2σ as an isotype control were combined with sCD40L (Tonbo Biosciences, San Diego, Calif.) in PBS, in a ratio of 1 molecule of sCD40L to 3000 molecules of antibody. After 20 minutes incubation at room temperature, the solution was diluted in a blood sample to reach the final concentration of 240 μg/ml (Hu5C8) and 10 ng/ml (sCD40L). […]"}, "[2]": {"test_system": "fibrin", "assay": "Vessel-On-Chip blood perfusion: fibrin deposition by fluorescent fibrinogen imaging", "conditions": "for fibrin deposition on the endothelium compared to untreated blood: hu5C8 240 μg/mL, sCD40L 10 ng/ml, alone or combined, 4 donors, 60 μl/minute", "protocol": "as §1, §2\nCell-monolayer integrity: Transmission light microscopy was routinely used to assess cell-monolayer integrity prior to each experiment. Before every experiment, each one of the endothelialized channels was inspected via light microscopy. Samples showing any sign of discontinuity in the endothelium were discarded. Vascular leakage assay as test for tissue integrity: The ability of cells to form a confluent monolayer was monitored for one week measuring vascular leakage of dextran (ThermoFisher). In order to measure vascular leakage the vascular channel was perfused with cell culture medium containing fluorescent dextran-cascade blue (3 kDa, ThermoFisher). The apical compartment was perfused with plain medium (without FBS). At various time points, the effluent from the chip was collected, and the relative fluorescence of the top and bottom compartments were measured using a standard plate reader. […] TNF-alpha Stimulation: In some experiment endothelial cells were stimulate with 50 ng/ml of TNF (Sigma) for 6 hours in order to induce vascular inflammation before blood perfusion. Experiments with Blood: Blood Samples And Endothelium: Citrated human blood (Research Blood Components, Cambridge, Mass.) was used within 4 hours of a blood draw in order to minimize pre-analytical effects on platelet function. Before every experiment, each one of the endothelialized channels (i.e. microchannels having an endothelial cell layer) was inspected via light microscopy. Samples showing any sign of discontinuity in the endothelium were discarded. […] USA) was at room temperature for 20 minutes. […]"}, "[3]": {"test_system": "re-calcified blood", "assay": "On-chip anticoagulation of outflowing re-calcified blood through the anticoagulant port", "conditions": "sodium citrate introduced through the anticoagulant port next to the outflow port", "text": "In order to functionally test the system, re-calcified blood was perfused through the inlet while anticoagulant, e.g. citrate buffer, was introduced online from the port situated next to the outflow port. Thus, blood obtained from the effluent of chips equipped with the anticoagulant port or without anticoagulant port were compared (FIG. 6). From a qualitative point of view the difference was striking.\nIn order to functionally test the additive channel (i.e. microfluidic chamber(s)) attached to the outflow port of a Vessel-On-Chip, re-calcified blood was perfused through the inlet port while citrate was introduced online from a port situated next to the outflow port, flowing through the additive channel. Thus, blood obtained from the effluent of chips equipped with the anticoagulant port (additive channel) or without anticoagulant port were compared (FIG. 6). From a qualitative point of view the difference was striking."}, "[4]": {"test_system": "thrombin anti-thrombin complex (TAT)", "assay": "Thrombin anti-thrombin (TAT) ELISA in plasma from chip effluent", "conditions": "outflow samples; TNF-α pre-treatment of endothelium, or sCollagen or hu5C8/sCD40L in blood before perfusion", "protocol": "Thrombin converts fibrinogen into fibrin during clot formation, and anti-thrombin plays a role in maintaining homeostasis by inhibiting the effect of thrombin. Formation of TAT in the microdevice confirms that local and intrinsic generation of thrombin, a potent platelet agonist, occurs in the model and that counter regulatory mechanisms for coagulation are retained. Thus, blood sampled from the Vessel-On-Chip was analyzed for thrombin anti-thrombin complex (TAT), an accepted clinical biomarker for procoagulation^48,49. […] An enzyme-linked immunosorbent assay (ELISA) was used to quantify the thrombin anti-thrombin complex (TAT).\nThrombin-Anti Thrombin (TAT) measurement via ELISA: Thrombin Anti-Thrombin (TAT) levels were analyzed in plasma from blood flowing out of the chip device by removing a sample from the outflow port. Thus TAT levels were evaluated in sample effluents collected from the outflow port of the chip using the Human TAT ELISA Kit (Siemens Healthineers) according to the user manual.\nBlood sampled from the Vessel-On-Chip outflow port was analyzed for thrombin anti-thrombin complex (TAT), a factor released upon activation of the coagulation cascade and one of the biomarkers associated with thrombotic events occurring in patients affected with deep vein thrombosis (DVT) or SLE^45,46. […]"}, "[5]": {"test_system": "ICAM1", "assay": "ICAM1 immunostaining of endothelium on-chip", "conditions": "TNF-α 50 ng/ml, 6 hours", "text": "ICAM1 is shown with examples identified by white arrows. One example of a DAN stained nuclei is shown inside of a white circle.\nDiverse structural characteristics of blood clots induced by the two experimental stimuli were captured via scanning electron microscopy (SEM) as colored images in FIG. 18D."}, "[6]": {"test_system": "hu5C8-mediated thrombosis", "assay": "hu5C8-mediated thrombosis on-chip, FcγRIIa dependence (platelet coverage, fibrin deposition, TAT)", "conditions": "with sCD40L 10 ng/ml, IV.3 1 μg/ml pre-block of FcγRIIa, or IgG2σ variant in place of hu5C8", "text": "Recent studies conducted on humanized mice expressing the human Fcγ receptors (FCGR2A) have shown that this receptor plays a role in thrombosis leading to the IC-mediated toxicity^12,16,21. […] In order to investigate if the IC5c8-induced thrombosis that we observed in our vessel-on-chip system also relies on an Fc-mediated mechanism, we used two different tool molecules: IgG2σ and IV.3 (FIG. 25A). The IgG2σ variant of hu5C8 has an engineered Fe region^48 that eliminates affinity for the FcγRIIa, while the monoclonal antibody IV.3 is a blocking antibody binding to FcγRIIa. Briefly, equimolar concentrations of IgG2σ or hu5c8 were incubated with 10 ng/ml of sCD40L for 20 minutes to form ICIgG2σ or IC5c8, respectively.\nSome of the blood samples were treated with IV.3 (1 μg/ml) for 10 minutes to block the FcγRIIa, and then incubated for 20 more minutes with IC5c8. Finally, blood alone (control) or blood incubated with IC5c8, ICIgG2σ or IV.3 was perfused through the biomimetic microfluidic-on-chip for about 10 minutes. We tested 15 donors and all the tested conditions described above were tested in duplicates and analyzed as percentage of platelet coverage based on fluorescence microscopic imaging (FIG. 25B). Five of the donors were also tested for fibrin deposition (FIG. 25C). Finally, effluents plasma obtained from a total of 7 of the donors (including the 5 mentioned before) were used to assess TAT via ELISA (FIG. 25D). […]\nBlood from several human donors were aliquoted into groups for the following treatments: controls (PBS), sCD40L, combined hu5C8/sCD40L, combined hu5C8 (IgG2σ)/sCD40L combined, and combined hu5C8/sCD40L/IV.3. Each condition was tested with a minimum of 3 donors to a maximum of 15 donors, and all conditions were tested in duplicates and analyzed for platelet coverage (FIG. 25B), fibrin deposition (FIG. 25C), or increased formation of TAT measured in the eluates (FIG. 25D). […]"}, "[7]": {"conditions": "TNF-α 50 ng/ml 6 hours endothelial pre-treatment or sCollagen 10 μg/ml in blood, vs blood alone"}},
  "note": "Entries after “also recorded” stand apart in the source; their conditions may differ. Structures can show the parent of a compound that is named as a salt. Positions of bridges follow the written chain, without caps; N, C: chain ends. Non-standard residues stand in square brackets, D forms with d. Residues, ends and D or L forms follow the SMILES beside them. hArg = N=C(N)NCCCC[C@H](N)C(=O)O; Mpa = O=C(O)CCS",
  "data": [
    {"molecule": "N=C(N)NCCCC[C@@H]1NC(=O)CCSSC[C@@H](C(N)=O)NC(=O)[C@@H]2CCCN2C(=O)[C@H](Cc2c[nH]c3ccccc23)NC(=O)[C@H](CC(=O)O)NC(=O)CNC1=O", "note": "[Eptifibatide] ([Mpa][hArg]GDWPC-NH2; disulfide 1-7)", "values": [
      {"measurement": "effects of pro-thrombotic conditions (TNF-α, sCollagen) on platelet coverage and fibrin deposition", "setting": "[1]; adding Eptifibatide, n=4 donors (FIG. 18E)", "result": "suppressed"},
      {"measurement": "fibrin signal (image analysis)", "setting": "[2]; Eptifibatide 2 ug/ml, samples treated with TNF-α, n=4", "result": "still detectable"}
    ]},
    {"molecule": "O=C(O)CC(O)(CC(=O)O)C(=O)O", "note": "[sodium citrate]", "values": [
      {"measurement": "state of blood collected at the end of each experiment", "setting": "[3]", "result": "soluble (not clotted)"}
    ]},
    {"molecule": "TNF-α", "values": [
      {"measurement": "areas of platelet coverage", "setting": "[1]; [7]", "result": "increased"},
      {"measurement": "fibrin signal intensity", "setting": "[2]; [7]", "result": "increased"},
      {"measurement": "levels of TAT", "setting": "[4]", "result": "significantly increased; also recorded: elevated"},
      {"measurement": "expression of ICAM1 in the endothelium compared to the control", "setting": "[5]", "result": "increased expression"}
    ]},
    {"molecule": "hu5C8: humanized monoclonal IgG1 antibody against CD40L (anti-CD154)", "values": [
      {"measurement": "platelet aggregate formation compared to untreated blood", "setting": "[1]", "result": "no significant treatment-related effects"},
      {"measurement": "fibrin deposition on the endothelium compared to untreated blood", "setting": "[2]", "result": "no significant treatment-related effects"}
    ]},
    {"molecule": "sCD40L: soluble CD40 ligand; recombinant human sCD40 Ligand", "values": [
      {"measurement": "platelet aggregate formation compared to untreated blood", "setting": "[1]", "result": "no significant treatment-related effects"},
      {"measurement": "increase in platelet coverage over untreated control, some donors", "setting": "[1]; sCD40L alone, Example 5", "result": "about 2 fold"},
      {"measurement": "mean increase in platelet coverage compared to controls", "setting": "[1]; sCD40L alone, Example 5", "result": "not statistically significant"},
      {"measurement": "fibrin deposition on the endothelium compared to untreated blood", "setting": "[2]", "result": "no significant treatment-related effects"}
    ]},
    {"molecule": "B1", "values": [
      {"measurement": "hu5C8-mediated thrombosis on-chip (platelet coverage, fibrin deposition, TAT)", "setting": "[6]", "result": "did not show signs of thrombosis"},
      {"measurement": "hu5C8-mediated thrombosis on-chip (platelet coverage, fibrin deposition, TAT)", "setting": "[6]; listed as IgG2σ", "result": "suppressed"},
      {"measurement": "hu5C8-mediated thrombosis on-chip (platelet coverage, fibrin deposition, TAT)", "setting": "[6]; listed as hu5C8-IgG2σ", "result": "not detected"}
    ]}
  ]
}
